The values below come from PubChem BioAssay (NCI).

The structures appear in SMILES notation.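 Step 1: Grow cells in 96-well plates. Step 2: Expose to compound for 48 hours at 5 concentrations. Step 3: Interpolate endpoints linearly; if unreached, use highest concentration. TGI: total growth inhibition.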

Some test systems named below: OVCAR-3 ovarian; EKVX NSCLC; SNB-78 CNS; MOLT-4 leukemia; MCF7 breast; NCI/ADR-RES ovarian; KM20L2 colon; A498 renal; IGROV1 ovarian; MALME-3M melanoma; HL-60(TB) leukemia; UO-31 renal; MDA-MB-435; 786-0 renal; DU-145 prostate; TK-10 renal; ACHN renal; MDA-MB-231 breast; MDA-N; SR leukemia.
What all share (experiment): NCI anticancer screen, dose series, 48 h

For the compound `O=P1(Oc2ccc(Cl)cc2Cl)Oc2ccc3ccccc3c2-c2c(ccc3ccccc23)O1`, the TGI is 49.5 µM with OVCAR-3 ovarian; above 67.3 µM in the assay with EKVX NSCLC; above 83.8 µM in the assay with SNB-78 CNS; 55.6 µM in the assay on MOLT-4 leukemia; above 100 µM with MCF7 breast; above 100 µM in the assay on NCI/ADR-RES ovarian. Further, the TGI in the assay on KM20L2 colon is above 76.2 µM; with A498 renal, above 95.4 µM; in the assay with IGROV1 ovarian, above 71.8 µM; in the assay on MALME-3M melanoma, 46.4 µM; with HL-60(TB) leukemia, 53.8 µM; in the assay on UO-31 renal, 41.3 µM.

For the compound `O=[N+]([O-])c1ccc(N=Nc2c(O)ccc3ccccc23)c([N+](=O)[O-])c1`, the TGI in the assay with OVCAR-3 ovarian, in the assay on EKVX NSCLC, in the assay with MOLT-4 leukemia, in the assay on MDA-MB-435, in the assay on MCF7 breast and in the assay on 786-0 renal was above 100 µM in each case. Further, the TGI with DU-145 prostate, with TK-10 renal, in the assay with NCI/ADR-RES ovarian, with ACHN renal, in the assay on MDA-MB-231 breast and with MDA-N was above 100 µM in each case. For the same compound, the TGI in the assay with A498 renal, in the assay on IGROV1 ovarian, in the assay on MALME-3M melanoma, with UO-31 renal and with SR leukemia was above 100 µM throughout.

Regarding `O=C(Nc1ccccc1)c1cc2ccccc2c(N=Nc2ccc([N+](=O)[O-])cc2)c1O`, the TGI in the assay with OVCAR-3 ovarian, in the assay on EKVX NSCLC, in the assay with MOLT-4 leukemia, with MDA-MB-435, in the assay with 786-0 renal and in the assay on DU-145 prostate was above 100 µM in each case. The TGI in the assay with TK-10 renal, in the assay with NCI/ADR-RES ovarian, in the assay with ACHN renal, with MDA-MB-231 breast, in the assay with IGROV1 ovarian and with MALME-3M melanoma was above 100 µM each time. The TGI in the assay on HL-60(TB) leukemia and in the assay on UO-31 renal was above 100 µM each time.

For the compound `COc1ccc2nccc(SCC(=O)O)c2c1`, the TGI in the assay with OVCAR-3 ovarian, in the assay on EKVX NSCLC, in the assay with MOLT-4 leukemia, with MDA-MB-435, in the assay on 786-0 renal and in the assay on DU-145 prostate was above 100 µM throughout. The TGI in the assay on TK-10 renal, in the assay with NCI/ADR-RES ovarian, with ACHN renal, in the assay on MDA-MB-231 breast, with MDA-N and in the assay with A498 renal was above 100 µM in each case. For the same compound, the TGI in the assay on IGROV1 ovarian, in the assay on HL-60(TB) leukemia, in the assay on UO-31 renal and with SR leukemia was above 100 µM in each case.

Take `CCCC[C@H]1[C@@H](OCOc2ccccc2)COC(=O)N1[C@H](C)c1ccccc1`: the TGI is 27.8 µM in the assay on OVCAR-3 ovarian; 85.2 µM in the assay with EKVX NSCLC; above 60.4 µM in the assay on MOLT-4 leukemia; 38.5 µM with MDA-MB-435; 26.7 µM in the assay on MCF7 breast; 53.3 µM with DU-145 prostate. Further, the TGI in the assay on TK-10 renal was 39 µM; in the assay with NCI/ADR-RES ovarian it was above 66.1 µM; in the assay with ACHN renal, 47.8 µM; with MDA-MB-231 breast it was 37.3 µM; in the assay on MDA-N, 32.4 µM; with A498 renal, 29.4 µM. Moreover, the TGI with IGROV1 ovarian is above 61.8 µM; in the assay with MALME-3M melanoma it was 33.5 µM; with HL-60(TB) leukemia, 59.4 µM; in the assay with UO-31 renal it was above 45.1 µM; in the assay on SR leukemia, above 80.9 µM.

For `COc1ccc(C2SCC(=O)N2NC(=O)c2ccncc2)cc1F` (centres undefined), the TGI in the assay on SNB-78 CNS, in the assay on TK-10 renal, in the assay with KM20L2 colon, in the assay with ACHN renal, with A498 renal and with MALME-3M melanoma was above 100 µM in each case. The TGI in the assay with HL-60(TB) leukemia and in the assay on SR leukemia was above 100 µM in each case.
